The source of these data is US4631270A, “Therapeutically useful pseudopeptides, compositions containing the same and methods of preparation and use” (priority 1985, dated 1986).

For series [1], the system named is repair-deficient strains of Bacillus subtilis. The series can be described thus: Mutagenicity test, variation of the Ames test (overall result). Type of series: cell-based. Particulars: results of Table 2b. As for the experimental part:
(§1) The mutagenicity of Gly .PSI. Leu and Gly .PSI. Ile was examined by a variation of the Ames test using repair-deficient strains of Bacillus subtilis.
(§2) The specific procedures by which these tests were conducted are described in the following references: […]
(The Ames test uses bacterial strains that need an amino acid and regain growth without it when mutated back.)

A further series relates to Wild type. Briefly: Mutagenicity test, growth inhibition, wild type strain. It is filed as cell-based, Bacillus subtilis. Particulars: concentration 0.1 M. As for the experimental part: as §1, §2
The subject of the next series is MC-1. Briefly: Mutagenicity test, growth inhibition, strain MC-1. To be noted: concentration 0.1 M. Type of series: cell-based, Bacillus subtilis. As for the experimental part: as §1, §2
The test system of a further series is Hcr-9. Briefly: Mutagenicity test, growth inhibition, strain Hcr-9. It is filed as cell-based, Bacillus subtilis. As for the experimental part:
as §1, §2

For a further series, the system named is FB-13. The series can be described thus: Mutagenicity test, growth inhibition, strain FB-13. Particulars: concentration 0.1 M. Type of series: cell-based, Bacillus subtilis. As for the experimental part:
as §1, §2

In another series the test system is Pol A. The series can be described thus: Mutagenicity test, growth inhibition, strain Pol A. Type of series: cell-based, Bacillus subtilis. To be noted: concentration 0.1 M. As for the experimental part: as §1, §2
The next series relates to Swiss Wistar mice. The series can be described thus: Acute toxicity and weight gain of Swiss Wistar mice injected I.P. Type of series: in vivo. Particulars: dose levels 44-432 mg/Kg, five mice per dose level. As to the method:
One example of the low toxicity of the compounds of this invention is the results achieved with mice on treatment with Gly .PSI. Leu. In the test Swiss Wistar mice were injected I.P. with Gly .PSI. Leu at the dose levels indicated below. Five mice were tested at each dose level. […] The behavior of the animals was observed closely for 7 days after injection.

Series [2] concerns methionine adenosyl transferase (MAT). From the text: Possible mutagenic effects of pseudodipeptides were examined two ways. One possible route for a metabolic complication is via the action of methionine adenosyl transferase (MAT). Ethionine (which contains a thiomethylene linkage) is known to be both a carcinogen and a substrate for MAT.
For series [3] the following is noted: rapid destruction by proteolysis; cited from earlier work.

Where two headings read alike, the source gives them in different places.

With `CC[C@H](C)[C@H](SCCN)C(=O)O` [Gly .PSI. Ile], the mutagenicity result in series [1] is “neither Gly .PSI. Leu nor Gly .PSI. Ile behaves as a mutagen”. In addition, in the series with Wild type, the “Growth Inhibition of Bacterial Strains in mm, Wild type” value came out at 0 mm. Further, the “Growth Inhibition of Bacterial Strains in mm, MC-1” value with MC-1 came to 0 mm. In the series with Hcr-9, the “Growth Inhibition of Bacterial Strains in mm, Hcr-9” value is given as 0 mm. In the series on FB-13, the “Growth Inhibition of Bacterial Strains in mm, FB-13” value is reported as 0 mm. Also, the “Growth Inhibition of Bacterial Strains in mm, Pol A” value in the series on Pol A worked out at 0 mm.

Consider `CC(C)CC(SCCN)C(=O)O` (centres unmarked) [Gly .PSI. Leu, pseudoglycylleucine], for which the “signs of acute toxicity” value in the series on Swiss Wistar mice is recorded as “In no case did any of the mice show any signs of acute toxicity”. Besides, the Counts/Min transferred in series [2] (Expt I, concentration 12 mM, None = 15,760) is given as 16,620 Counts/Min; in series [2] (Expt II, concentration 80 mM, None = 7,380) it was 7,990 Counts/Min. Further, the “effect on MAT activity” value in [2] (possible substrate or competitive inhibitor of MAT) was “neither Gly .PSI. Leu nor Gly .PSI. D-Leu has a measurable effect on MAT activity”. For the same compound, the mutagenicity entry in series [1] is listed as “neither Gly .PSI. Leu nor Gly .PSI. Ile behaves as a mutagen”. The “Growth Inhibition of Bacterial Strains in mm, Wild type” value in the series on Wild type is given as 0 mm. The “Growth Inhibition of Bacterial Strains in mm, MC-1” value in the series with MC-1 is on record as 0 mm. In the series with Hcr-9 (concentration 0.1 M), the “Growth Inhibition of Bacterial Strains in mm, Hcr-9” value was 0 mm. For the same compound, in the series with FB-13, the “Growth Inhibition of Bacterial Strains in mm, FB-13” value was 0 mm. For the same compound, the “Growth Inhibition of Bacterial Strains in mm, Pol A” value in the series on Pol A turned out to be 0 mm.

Consider “pGlu-His-Trp-Ser-Tyr-Gly-Leu-Arg-Pro-Gly-NH2 [Luteinizing hormone-releasing hormone]”, for which the biological half-life in series [3] is on record as 2 min.
